Source: the supplement of paper PMC11061612

How the values were obtained:
[1] = tested on: TE-10 (Esophageal Squamous Cell Carcinoma); test: Bliss excess, mean over the matrix (fraction); higher = more synergy
In short: (§1)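 After 24 hours at 37°C and 5% CO2 in 1536-well plates, cells in DMEM/F12 or RPMI plus 10% FBS received two-drug dose matrices for 72 hours. Viability came from CellTiter-Glo 2.0 luminescence and was scaled as inhibition, anchored at 0 by vehicle wells and at 1 by blank wells. Combination Emax is taken as the second-highest inhibition in the matrix, and Bliss excess as the observed combination effect less EA + EB − EA·EB, with EA and EB the single-agent effects.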

769-P (Kidney Carcinoma) = test: combination Emax (second highest fraction inhibited in the dose matrix, 72 h); higher = more inhibition; extreme values may be limits of the assay
In short: as §1

A101D (Melanoma) = test: as above
In short: as §1

A204 (Rhabdomyosarcoma) = test: as above
In short: as §1

COLO-792 (Melanoma) = test: as above
In short: as §1

[2] = tested on: DU-4475 (Breast Carcinoma); test: as above
In short: as §1

EB2 (Burkitt's Lymphoma) = test: as above
In short: as §1

[3] = tested on: GA-10 (Burkitt's Lymphoma); test: as above
In short: as §1

[4] = tested on: HCC1395 (Breast Carcinoma); test: as above
In short: as §1

[5] = tested on: KYSE-220 (Esophageal Squamous Cell Carcinoma); test: as above
In short: as §1

[6] = tested on: NCI-H441 (Lung Adenocarcinoma); test: as above
In short: as §1

[7] = tested on: TE-10 (Esophageal Squamous Cell Carcinoma); test: as above
In short: as §1
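For Bliss excess, mean over the matrix in this document: after 72 h of two-drug dosing.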

Row | Structure (SMILES) | Bliss excess [1] | combination Emax (769-P (Kidney Carcinoma)) | combination Emax (A101D (Melanoma)) | combination Emax (A204 (Rhabdomyosarcoma)) | combination Emax (COLO-792 (Melanoma)) | combination Emax [2] | combination Emax (EB2 (Burkitt's Lymphoma)) | combination Emax [3] | combination Emax [4] | combination Emax [5] | combination Emax [6] | combination Emax [7]
1 | Cc1c2c(nn1C)CSCc1cc(n(C)n1)CSc1cc(c3ccccc3c1)OCCCc1c(C(=O)O)n(C)c3c-2c(Cl)ccc13 [AZD5991] + C=CCn1c(=O)c2cnc(Nc3ccc(N4CCN(C)CC4)cc3)nc2n1-c1cccc(C(C)(C)O)n1 [AZD1775] (first compound max 1 µM, partner max 1 µM) | -0.0235 | 0.858 | 1 | 0.829 | 0.988 | 0.977 | 0.769 | 1 | 0.88 | 0.848 | 0.471 | 0.942
2 | Cc1c2c(nn1C)CSCc1cc(n(C)n1)CSc1cc(c3ccccc3c1)OCCCc1c(C(=O)O)n(C)c3c-2c(Cl)ccc13 [AZD5991] + CC1(C)CCC(CN2CCN(c3ccc(C(=O)NS(=O)(=O)c4ccc(NCC5CCOCC5)c([N+](=O)[O-])c4)c(Oc4cnc5[nH]ccc5c4)c3)CC2)=C(c2ccc(Cl)cc2)C1 [Venetoclax] (first compound max 1 µM, 7x7, partner max 1 µM) | 0.0262 | 0.122 | 0.989 | 0.513 | 0.997 | 0.447 | 0.332 | 0.64 | 0.736 | 0.181 | 0.214 | 0.886
3 | Cc1c2c(nn1C)CSCc1cc(n(C)n1)CSc1cc(c3ccccc3c1)OCCCc1c(C(=O)O)n(C)c3c-2c(Cl)ccc13 [AZD5991] + CCN(CCO)CCCOc1ccc2c(Nc3cc(CC(=O)Nc4cccc(F)c4)[nH]n3)ncnc2c1 [AZD2811] (first compound max 1 µM, 7x7, partner max 1 µM) | -0.0161 | 0.328 | 0.998 | 0.688 | 0.977 | 0.378 | 0.342 | 0.923 | 0.713 | 0.308 | 0.31 | 0.848
4 | Cc1c2c(nn1C)CSCc1cc(n(C)n1)CSc1cc(c3ccccc3c1)OCCCc1c(C(=O)O)n(C)c3c-2c(Cl)ccc13 [AZD5991] + CN(C)CCCOc1ccc(-c2ccc3ncc4c(c3c2)n(C2CCOCC2)c(=O)n4C)cn1 [AZD0156] (first compound max 1 µM, 7x7, partner max 1 µM) | -0.055 | 0.243 | 1 | 0.729 | 1 | 0.244 | 0.42 | 0.776 | 0.537 | 0.278 | 0.246 | 0.84
5 | Cc1c2c(nn1C)CSCc1cc(n(C)n1)CSc1cc(c3ccccc3c1)OCCCc1c(C(=O)O)n(C)c3c-2c(Cl)ccc13 [AZD5991] + C[C@@H]1COCCN1C2=NC(=NC(=C2)C3(CC3)[S@](=N)(=O)C)C4=C5C=CNC5=NC=C4 [AZD6738] (first compound max 1 µM, 7x7, partner max 10 µM) | -0.0332 | 0.797 | 1 | 0.773 | 1 | 0.978 | 0.8 | 0.998 | 0.918 | 0.877 | 0.39 | 0.901
6 | Cc1c2c(nn1C)CSCc1cc(n(C)n1)CSc1cc(c3ccccc3c1)OCCCc1c(C(=O)O)n(C)c3c-2c(Cl)ccc13 [AZD5991] + C[C@@H](Nc1cc(F)cc(F)c1)c1cc(C(=O)N(C)C)cc2c(=O)cc(N3CCOCC3)oc12 [AZD8186] (first compound max 1 µM, 7x7, partner max 3 µM) | 0.0078 | 0.223 | 0.952 | 0.785 | 0.999 | 0.117 | 0.467 | 0.869 | 0.736 | 0.177 | 0.34 | 0.891
7 | Cc1c2c(nn1C)CSCc1cc(n(C)n1)CSc1cc(c3ccccc3c1)OCCCc1c(C(=O)O)n(C)c3c-2c(Cl)ccc13 [AZD5991] + Cc1cc2ncnn2cc1Nc1ncc2c(n1)n(C1CCOCC1)c(=O)n2C [AZD7648] (first compound max 1 µM, 7x7, partner max 10 µM) | -0.0057 | 0.32 | 0.997 | 0.659 | 1 | 0.297 | 0.465 | 0.851 | 0.545 | 0.218 | 0.259 | 0.855
8 | Cc1c2c(nn1C)CSCc1cc(n(C)n1)CSc1cc(c3ccccc3c1)OCCCc1c(C(=O)O)n(C)c3c-2c(Cl)ccc13 [AZD5991] + Cn1cnc2c(F)c(Nc3ccc(Br)cc3Cl)c(C(=O)NOCCO)cc21 [Selumetinib] (first compound max 1 µM, 7x7, partner max 3 µM) | 0.0198 | 0.227 | 1 | 0.459 | 1 | 1 | 0.212 | 0.751 | 0.56 | 0.304 | 0.405 | 0.899
9 | C[C@@H]1COCCN1c1cc(C2([S@](C)(=N)=O)CC2)nc(-c2ccnc3[nH]ccc23)n1 [AZD6738] + O=C(c1cc(Cc2n[nH]c(=O)c3ccccc23)ccc1F)N1CCN(C(=O)C2CC2)CC1 [Olaparib] (first compound max 10 µM, 7x7, partner max 10 µM) | -0.0141 | 0.756 | 0.661 | 0.417 | 0.278 | 0.975 | 0.813 | 0.942 | 0.852 | 0.808 | 0.476 | 0.78
10 | COc1cccc2c1C(=O)c1c(O)c3c(c(O)c1C2=O)C[C@@](O)(C(=O)CO)C[C@@H]3O[C@H]1C[C@H](N)[C@H](O)[C@H](C)O1 [Doxorubicin] + Cc1cc2ncnn2cc1Nc1ncc2c(n1)n(C1CCOCC1)c(=O)n2C [AZD7648] (first compound max 1 µM, 7x7, partner max 10 µM) | 0.0583 | 0.706 | 0.897 | 0.925 | 0.445 | 1 | 0.979 | 0.963 | 0.401 | 0.979 | 0.452 | 0.746
11 | COc1cccc(OCCCN)c1-c1cc(Nc2cnc(C#N)cn2)n[nH]1 [Prexasertib] + C=CCn1c(=O)c2cnc(Nc3ccc(N4CCN(C)CC4)cc3)nc2n1-c1cccc(C(C)(C)O)n1 [AZD1775] (first compound max 1 µM, partner max 1 µM) | 0.0262 | 0.867 | 0.832 | 0.648 | 0.593 | 0.997 | 0.936 | 1 | 0.903 | 0.973 | 0.539 | 0.976
12 | COc1cccc(OCCCN)c1-c1cc(Nc2cnc(C#N)cn2)n[nH]1 [Prexasertib] + CCc1c2c(nc3ccc(O)cc13)-c1cc3c(c(=O)n1C2)COC(=O)[C@]3(O)CC [SN-38] (first compound max 1 µM, 7x7, partner max 0.3 µM) | -0.0428 | 0.789 | 0.899 | 0.678 | 0.559 | 1 | 0.976 | 1 | 0.898 | 0.96 | 0.712 | 0.939
13 | COc1cccc(OCCCN)c1-c1cc(Nc2cnc(C#N)cn2)n[nH]1 [Prexasertib] + CN(C)CCCOc1ccc(-c2ccc3ncc4c(c3c2)n(C2CCOCC2)c(=O)n4C)cn1 [AZD0156] (first compound max 1 µM, 7x7, partner max 1 µM) | -0.0174 | 0.898 | 0.737 | 0.633 | 0.386 | 0.951 | 0.909 | 1 | 0.857 | 0.925 | 0.513 | 0.938
14 | COc1cccc(OCCCN)c1-c1cc(Nc2cnc(C#N)cn2)n[nH]1 [Prexasertib] + C[C@@H]1COCCN1C2=NC(=NC(=C2)C3(CC3)[S@](=N)(=O)C)C4=C5C=CNC5=NC=C4 [AZD6738] (first compound max 1 µM, 7x7, partner max 10 µM) | -0.0244 | 0.837 | 0.773 | 0.534 | 0.351 | 0.995 | 0.92 | 1 | 0.86 | 0.939 | 0.544 | 0.945
15 | COc1cccc(OCCCN)c1-c1cc(Nc2cnc(C#N)cn2)n[nH]1 [Prexasertib] + Cc1cc2ncnn2cc1Nc1ncc2c(n1)n(C1CCOCC1)c(=O)n2C [AZD7648] (first compound max 1 µM, 7x7, partner max 10 µM) | -0.0604 | 0.819 | 0.762 | 0.528 | 0.317 | 0.963 | 0.92 | 1 | 0.855 | 0.935 | 0.505 | 0.938
16 | COc1cccc(OCCCN)c1-c1cc(Nc2cnc(C#N)cn2)n[nH]1 [Prexasertib] + O=C(c1cc(Cc2n[nH]c(=O)c3ccccc23)ccc1F)N1CCN(C(=O)C2CC2)CC1 [Olaparib] (first compound max 1 µM, 7x7, partner max 10 µM) | -0.105 | 0.751 | 0.788 | 0.584 | 0.322 | 0.98 | 0.916 | 0.987 | 0.88 | 0.947 | 0.574 | 0.892
17 | CCc1c2c(nc3ccc(O)cc13)-c1cc3c(c(=O)n1C2)COC(=O)[C@]3(O)CC [SN-38] + CN(C)CCCOc1ccc(-c2ccc3ncc4c(c3c2)n(C2CCOCC2)c(=O)n4C)cn1 [AZD0156] (first compound max 0.3 µM, 7x7, partner max 1 µM) | 0.0444 | 0.716 | 0.674 | 0.59 | 0.361 | 0.95 | 0.948 | 0.913 | 0.512 | 0.947 | 0.614 | 0.725
18 | CC(=O)Nc1cccc(-n2c(=O)n(C3CC3)c(=O)c3c(Nc4ccc(I)cc4F)n(C)c(=O)c(C)c32)c1 [Trametinib] + Cc1nc(-c2cn3c(n2)-c2ccc(-c4cnn(C(C)(C)C(N)=O)c4)cc2OCC3)n(C(C)C)n1 [Taselisib] (first compound max 1 µM, 7x7, partner max 10 µM) | 0.127 | 0.681 | 0.923 | 0.816 | 1 | 1 | 0.593 | 0.682 | 0.654 | 0.958 | 0.639 | 0.965
